# According to PubChem BioAssay AID220 (DTP/NCI, 2004):
# “And” between values parts separate entries of the source, which are not always exact repeats. Equal entries are not always repeated. Records with an inconclusive call do not appear.
# Test system: CD8F1 mice, subcutaneous mammary adenocarcinoma, T/C%
# Assay: NCI In Vivo Anticancer Drug Screen. Data for tumor model Mammary Adenocarcinoma CD8F1 (subcutaneous) in CD8F1
# Conditions: higher = larger tumour
# How it was run: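 Mice carrying transplanted tumors received test compound, and survival or tumor size was recorded. Each value is the treated-group measurement divided by the corresponding measurement in vehicle-dosed controls.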
# [1] = endpoint: median tumor weight (est.), dose: 100.0 mg/kg/injection, schedule: Q07DX005 (ip), vehicle: saline
# [2] = endpoint: median tumor weight (est.), dose: 200.0 mg/kg/injection, schedule: Q07DX005 (ip), vehicle: saline
# [3] = endpoint: median tumor weight change, dose: 62.5 mg/kg/injection, schedule: Q01DX001 (ip), vehicle: saline with Tween-80
# [4] = endpoint: median tumor weight change, dose: 125.0 mg/kg/injection, schedule: Q01DX001 (ip), vehicle: saline with Tween-80
# [5] = endpoint: median tumor weight change, dose: 250.0 mg/kg/injection, schedule: Q01DX001 (ip), vehicle: saline with Tween-80
# [6] = endpoint: median tumor weight change, dose: 500.0 mg/kg/injection, schedule: Q01DX001 (ip), vehicle: saline with Tween-80
# [7] = endpoint: median tumor weight change, dose: 1000.0 mg/kg/injection, schedule: Q01DX001 (ip), vehicle: saline with Tween-80
# [8] = endpoint: median tumor weight (est.), dose: 12.5 mg/kg/injection, schedule: Q07DX005 (ip), vehicle: saline
# [9] = endpoint: median tumor weight (est.), dose: 25.0 mg/kg/injection, schedule: Q07DX005 (ip), vehicle: saline
# [10] = endpoint: median tumor weight (est.), dose: 50.0 mg/kg/injection, schedule: Q07DX005 (ip), vehicle: saline
# [11] = endpoint: median tumor weight (est.), dose: 400.0 mg/kg/injection, schedule: Q07DX005 (ip), vehicle: saline
# [12] = endpoint: median tumor weight (est.), dose: 6.25 mg/kg/injection, schedule: Q07DX005 (ip), vehicle: saline with Tween-80
# [13] = endpoint: median tumor weight (est.), dose: 12.5 mg/kg/injection, schedule: Q07DX005 (ip), vehicle: saline with Tween-80
# [14] = endpoint: median tumor weight (est.), dose: 25.0 mg/kg/injection, schedule: Q07DX005 (ip), vehicle: saline with Tween-80
# [15] = endpoint: median tumor weight (est.), dose: 50.0 mg/kg/injection, schedule: Q07DX005 (ip), vehicle: saline with Tween-80
compound,measurement,setting,value
Nc1n[nH]c(N)n1,T/C,"endpoint: mean tumor weight, dose: 25.0 mg/kg/injection, schedule: Q01DX009 (ip), vehicle: saline",153 % of control
same,T/C,"endpoint: mean tumor weight, dose: 100.0 mg/kg/injection, schedule: Q01DX009 (ip), vehicle: saline",207 % of control
same,T/C,[1],50 % of control and 67 % of control
same,T/C,[2],58 % of control and 68 % of control
same,T/C,"endpoint: median tumor weight (est.), dose: 1600.0 mg/kg/injection, schedule: Q07DX005 (ip), vehicle: saline",27 % of control and 51 % of control
same,T/C,"endpoint: median tumor weight change, dose: 250.0 mg/kg/injection, schedule: Q01DX001 (ip), vehicle: saline",75 % of control
same,T/C,"endpoint: median tumor weight change, dose: 500.0 mg/kg/injection, schedule: Q01DX001 (ip), vehicle: saline",121 % of control
same,T/C,"endpoint: median tumor weight change, dose: 1000.0 mg/kg/injection, schedule: Q01DX001 (ip), vehicle: saline",120 % of control
same,T/C,"endpoint: median tumor weight change, dose: 2000.0 mg/kg/injection, schedule: Q01DX001 (ip), vehicle: saline",174 % of control
O=C(N[C@H](CO)[C@H](O)c1ccc([N+](=O)[O-])cc1)C(Cl)Cl,T/C,[3],102 % of control
same,T/C,[4],91 % of control
same,T/C,[5],92 % of control
same,T/C,[6],73 % of control
same,T/C,[7],98 % of control
O=C1[C@H]2CCC[C@H]2[C@H]2CCC[C@@H]12,T/C,[3],51 % of control
same,T/C,[4],44 % of control
same,T/C,[5],60 % of control
same,T/C,[6],35 % of control
Nc1nc(=O)n(C2OC(CO)C(O)C2O)cc1F (centres undefined),T/C,[8],91 % of control
same,T/C,[9],93 % of control
same,T/C,[10],61 % of control
same,T/C,[1],78 % of control
same,T/C,[2],46 % of control
same,T/C,[11],34 % of control
Cc1cc(NCCCCCCCNc2cc(C)nc3cc(N)ccc23)c2ccc(N)cc2n1,T/C,"endpoint: median tumor weight (est.), dose: 3.12 mg/kg/injection, schedule: Q07DX005 (ip), vehicle: saline with Tween-80",89 % of control
same,T/C,[12],111 % of control
same,T/C,[13],79 % of control
same,T/C,[14],26 % of control
same,T/C,"endpoint: median tumor weight change, dose: 31.25 mg/kg/injection, schedule: Q01DX001 (ip), vehicle: saline with Tween-80",28 % of control and 45 % of control
same,T/C,[3],27 % of control
C[C@@H](CN1CC(=O)NC(=O)C1)N1CC(=O)NC(=O)C1,T/C,[9],75 % of control
same,T/C,[10],39 % of control
same,T/C,"endpoint: median tumor weight (est.), dose: 100.0 mg/kg/injection, schedule: Q07DX005 (ip), vehicle: Klucel (hydroxypropylcellulose) (HPC)",52 % of control
same,T/C,[1],85 % of control
same,T/C,"endpoint: median tumor weight (est.), dose: 200.0 mg/kg/injection, schedule: Q07DX005 (ip), vehicle: Klucel (hydroxypropylcellulose) (HPC)",107 % of control
same,T/C,[2],46 % of control
same,T/C,"endpoint: median tumor weight (est.), dose: 400.0 mg/kg/injection, schedule: Q07DX005 (ip), vehicle: Klucel (hydroxypropylcellulose) (HPC)",37 % of control
same,T/C,[11],45 % of control
same,T/C,"endpoint: median tumor weight (est.), dose: 800.0 mg/kg/injection, schedule: Q07DX005 (ip), vehicle: Klucel (hydroxypropylcellulose) (HPC)",10 % of control
same,T/C,"endpoint: median tumor weight (est.), dose: 800.0 mg/kg/injection, schedule: Q07DX005 (ip), vehicle: saline",13 % of control
CCOC(=O)c1ccc(NN=NCCF)cc1,T/C,"endpoint: median tumor weight change, dose: 15.6 mg/kg/injection, schedule: Q01DX001 (ip), vehicle: distilled water + Tween-80",80 % of control
same,T/C,"endpoint: median tumor weight change, dose: 31.25 mg/kg/injection, schedule: Q01DX001 (ip), vehicle: distilled water + Tween-80",65 % of control
same,T/C,"endpoint: median tumor weight change, dose: 62.5 mg/kg/injection, schedule: Q01DX001 (ip), vehicle: distilled water + Tween-80",114 % of control
same,T/C,"endpoint: median tumor weight change, dose: 125.0 mg/kg/injection, schedule: Q01DX001 (ip), vehicle: distilled water + Tween-80",56 % of control
O=c1[nH]cnc2[nH]ncc12,T/C,"endpoint: median tumor weight change, dose: 125.0 mg/kg/injection, schedule: Q01DX001 (ip), vehicle: suspension in saline",104 % of control
same,T/C,"endpoint: median tumor weight change, dose: 250.0 mg/kg/injection, schedule: Q01DX001 (ip), vehicle: suspension in saline",71 % of control
BrCC[Se]c1ccccc1,T/C,[12],78 % of control
same,T/C,[13],104 % of control
same,T/C,[14],80 % of control
same,T/C,[15],152 % of control
C1OC1CN1CCN(CC2CO2)CC1 (centres undefined),T/C,"endpoint: median tumor weight (est.), dose: 3.12 mg/kg/injection, schedule: Q07DX005 (ip), vehicle: saline",72 % of control and 80 % of control
same,T/C,[8],24 % of control and 38 % of control
same,T/C,[9],24 % of control and 28 % of control
same,T/C,[10],1 % of control and 4 % of control
CC(=O)NC(Cc1ccc(F)cc1)C(=O)O (centres undefined),T/C,[15],117 % of control
same,T/C,"endpoint: median tumor weight (est.), dose: 100.0 mg/kg/injection, schedule: Q07DX005 (ip), vehicle: saline with Tween-80",80 % of control
same,T/C,"endpoint: median tumor weight (est.), dose: 200.0 mg/kg/injection, schedule: Q07DX005 (ip), vehicle: saline with Tween-80",68 % of control
same,T/C,"endpoint: median tumor weight (est.), dose: 800.0 mg/kg/injection, schedule: Q07DX005 (ip), vehicle: saline with Tween-80",153 % of control
C#C[C@]1(O)CC[C@H]2[C@@H]3CCc4cc(O)ccc4[C@H]3CC[C@@]21C,T/C,"endpoint: median tumor weight change, dose: 12.5 mg/kg/injection, schedule: Q01DX001 (ip), vehicle: Klucel (hydroxypropylcellulose) (HPC)",92 % of control
same,T/C,"endpoint: median tumor weight change, dose: 25.0 mg/kg/injection, schedule: Q01DX001 (ip), vehicle: Klucel (hydroxypropylcellulose) (HPC)",78 % of control
same,T/C,"endpoint: median tumor weight change, dose: 50.0 mg/kg/injection, schedule: Q01DX001 (ip), vehicle: Klucel (hydroxypropylcellulose) (HPC)",75 % of control
same,T/C,"endpoint: median tumor weight change, dose: 56.0 mg/kg/injection, schedule: Q01DX001 (ip), vehicle: Klucel (hydroxypropylcellulose) (HPC)",60 % of control
same,T/C,"endpoint: median tumor weight change, dose: 100.0 mg/kg/injection, schedule: Q01DX001 (ip), vehicle: Klucel (hydroxypropylcellulose) (HPC)",63 % of control
same,T/C,"endpoint: median tumor weight change, dose: 112.0 mg/kg/injection, schedule: Q01DX001 (ip), vehicle: Klucel (hydroxypropylcellulose) (HPC)",75 % of control
same,T/C,"endpoint: median tumor weight change, dose: 200.0 mg/kg/injection, schedule: Q01DX001 (ip), vehicle: Klucel (hydroxypropylcellulose) (HPC)",46 % of control
same,T/C,"endpoint: median tumor weight change, dose: 225.0 mg/kg/injection, schedule: Q01DX001 (ip), vehicle: Klucel (hydroxypropylcellulose) (HPC)",66 % of control
same,T/C,"endpoint: median tumor weight change, dose: 400.0 mg/kg/injection, schedule: Q01DX001 (ip), vehicle: Klucel (hydroxypropylcellulose) (HPC)",52 % of control
same,T/C,"endpoint: median tumor weight change, dose: 450.0 mg/kg/injection, schedule: Q01DX001 (ip), vehicle: Klucel (hydroxypropylcellulose) (HPC)",101 % of control
same,T/C,"endpoint: median tumor weight change, dose: 450.0 mg/kg/injection, schedule: Q01DX001 (ip), vehicle: saline with Tween-80",101 % of control
CC(C)[C@](O)(C(=O)OCC1=CC[N+]2([O-])CC[C@@H](O)[C@@H]12)[C@H](C)O (some centres undefined),T/C,"endpoint: median tumor weight (est.), dose: 25.0 mg/kg/injection, schedule: Q07DX005 (ip), vehicle: water",81 % of control
same,T/C,"endpoint: median tumor weight (est.), dose: 50.0 mg/kg/injection, schedule: Q07DX005 (ip), vehicle: water",67 % of control
same,T/C,"endpoint: median tumor weight (est.), dose: 100.0 mg/kg/injection, schedule: Q07DX005 (ip), vehicle: water",42 % of control
same,T/C,"endpoint: median tumor weight (est.), dose: 200.0 mg/kg/injection, schedule: Q07DX005 (ip), vehicle: water",79 % of control
same,T/C,"endpoint: median tumor weight (est.), dose: 400.0 mg/kg/injection, schedule: Q07DX005 (ip), vehicle: water",59 % of control
CC1=C(O)C(=O)[C@@H]2O[C@@H]2C1=O,T/C,"endpoint: median tumor weight change, dose: 7.8 mg/kg/injection, schedule: Q01DX001 (ip), vehicle: saline",54 % of control
same,T/C,"endpoint: median tumor weight change, dose: 15.6 mg/kg/injection, schedule: Q01DX001 (ip), vehicle: saline",81 % of control
same,T/C,"endpoint: median tumor weight change, dose: 31.25 mg/kg/injection, schedule: Q01DX001 (ip), vehicle: saline",48 % of control
CCOC(=O)c1cn(C)c2c1C(O)=C(C(=O)OC)CC(=O)N2,T/C,[4],79 % of control
same,T/C,[5],97 % of control
same,T/C,[6],83 % of control
same,T/C,[7],95 % of control
COc1ccc2c(NCCCCCCCCNc3c4ccccc4nc4cc(OC)ccc34)c3ccccc3nc2c1,T/C,"endpoint: median tumor weight (est.), dose: 0.47 mg/kg/injection, schedule: Q07DX005 (ip), vehicle: other",42 % of control
same,T/C,"endpoint: median tumor weight (est.), dose: 0.94 mg/kg/injection, schedule: Q07DX005 (ip), vehicle: other",63 % of control
same,T/C,"endpoint: median tumor weight (est.), dose: 1.87 mg/kg/injection, schedule: Q07DX005 (ip), vehicle: other",152 % of control
same,T/C,"endpoint: median tumor weight (est.), dose: 1.88 mg/kg/injection, schedule: Q07DX005 (ip), vehicle: other",50 % of control
same,T/C,"endpoint: median tumor weight (est.), dose: 3.75 mg/kg/injection, schedule: Q07DX005 (ip), vehicle: other",53 % of control
same,T/C,"endpoint: median tumor weight (est.), dose: 7.5 mg/kg/injection, schedule: Q07DX005 (ip), vehicle: other",36 % of control
COc1cccc2c1C(=O)c1c(O)c3c(c(O)c1C2=O)C[C@@](O)(C(O)CO)C[C@@H]3OC1CC(N(Cc2ccccc2)Cc2ccccc2)C(O)C(C)O1 (some centres undefined),T/C,"endpoint: median tumor weight change, dose: 62.0 mg/kg/injection, schedule: Q01DX001 (ip), vehicle: water",14 % of control
same,T/C,"endpoint: median tumor weight change, dose: 125.0 mg/kg/injection, schedule: Q01DX001 (ip), vehicle: water",-48 % of control
